# Like-named read-outs stand apart in the source and are kept apart here.
# What was measured:
# [1] = Pharmacokinetics in patients after a single dose; type: in vivo, human; settings: for AUC(0-inf) / AUC(0-t) / Cmax / Tmax / Vd/F / half-life / MRT last / MRT inf: human, serum, oral; for AUC(0-inf) / AUC(0-t) / Cmax / Tmax / Vd/F / half-life / MRT last / MRT inf / CL/F: single dose; for MRT last: read-out: MRT0→t; for MRT inf: read-out: MRT0→∞
# From the text: Additional File 5: Table S3. Mean pharmacokinetic parameters of patients after a single dose in each dosage group
# PI3Kα = experiment: PI3K isoform selectivity, α versus δ; type: biochemical
# PI3Kδ = PI3Kδ (Homo sapiens, UniProt O00329); experiment: PI3Kδ kinase inhibition; type: biochemical
# Chain of PI3Kδ (O00329 whole entry): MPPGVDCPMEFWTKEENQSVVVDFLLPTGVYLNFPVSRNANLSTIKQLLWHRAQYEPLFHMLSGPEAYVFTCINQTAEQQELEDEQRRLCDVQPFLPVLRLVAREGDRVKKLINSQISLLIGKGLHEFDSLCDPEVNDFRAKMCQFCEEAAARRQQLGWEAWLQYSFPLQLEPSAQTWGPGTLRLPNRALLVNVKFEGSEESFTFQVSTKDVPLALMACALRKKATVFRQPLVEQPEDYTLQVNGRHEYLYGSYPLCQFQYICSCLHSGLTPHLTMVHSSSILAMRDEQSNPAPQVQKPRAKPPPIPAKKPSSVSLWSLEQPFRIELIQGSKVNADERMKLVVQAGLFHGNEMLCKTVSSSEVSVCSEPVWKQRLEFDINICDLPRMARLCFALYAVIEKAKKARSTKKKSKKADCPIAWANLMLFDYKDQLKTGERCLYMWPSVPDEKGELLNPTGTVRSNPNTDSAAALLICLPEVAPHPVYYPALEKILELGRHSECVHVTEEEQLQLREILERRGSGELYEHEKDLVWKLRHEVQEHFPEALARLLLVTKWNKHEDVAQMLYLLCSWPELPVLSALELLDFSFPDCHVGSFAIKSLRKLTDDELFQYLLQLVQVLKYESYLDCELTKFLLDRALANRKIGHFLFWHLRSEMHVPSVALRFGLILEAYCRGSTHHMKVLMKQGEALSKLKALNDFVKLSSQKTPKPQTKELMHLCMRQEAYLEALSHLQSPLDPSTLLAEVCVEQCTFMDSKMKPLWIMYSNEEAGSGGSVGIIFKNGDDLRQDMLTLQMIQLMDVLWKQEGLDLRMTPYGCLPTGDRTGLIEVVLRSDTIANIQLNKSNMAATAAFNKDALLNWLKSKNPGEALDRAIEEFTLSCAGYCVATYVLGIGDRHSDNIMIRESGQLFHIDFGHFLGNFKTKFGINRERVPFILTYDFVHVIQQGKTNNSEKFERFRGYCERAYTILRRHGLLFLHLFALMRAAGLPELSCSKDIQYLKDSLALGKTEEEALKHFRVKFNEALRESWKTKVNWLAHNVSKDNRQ
# Chain of PI3Kδ (P27986 whole entry partner): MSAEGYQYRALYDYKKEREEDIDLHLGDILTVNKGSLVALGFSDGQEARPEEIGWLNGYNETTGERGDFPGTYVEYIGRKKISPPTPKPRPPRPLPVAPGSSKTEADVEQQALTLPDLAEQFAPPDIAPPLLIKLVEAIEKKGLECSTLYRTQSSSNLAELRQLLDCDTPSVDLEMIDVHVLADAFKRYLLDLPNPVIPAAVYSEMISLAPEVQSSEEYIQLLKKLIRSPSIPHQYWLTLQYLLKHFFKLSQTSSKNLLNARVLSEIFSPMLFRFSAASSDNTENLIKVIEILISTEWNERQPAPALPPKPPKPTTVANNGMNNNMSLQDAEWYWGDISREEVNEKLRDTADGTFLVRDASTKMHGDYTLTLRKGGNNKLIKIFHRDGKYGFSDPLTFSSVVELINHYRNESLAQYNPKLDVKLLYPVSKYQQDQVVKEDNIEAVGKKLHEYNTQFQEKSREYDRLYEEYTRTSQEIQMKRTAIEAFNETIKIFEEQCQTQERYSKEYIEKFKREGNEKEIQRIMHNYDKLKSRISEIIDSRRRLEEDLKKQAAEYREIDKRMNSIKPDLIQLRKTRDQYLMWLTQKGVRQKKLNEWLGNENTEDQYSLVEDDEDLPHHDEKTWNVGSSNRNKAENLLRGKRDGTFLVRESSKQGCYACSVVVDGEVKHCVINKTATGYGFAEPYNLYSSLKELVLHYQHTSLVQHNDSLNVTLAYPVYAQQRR
# [2] = Pharmacokinetics in patients after multiple administrations; type: in vivo, human; settings: for AUC(0-inf) / AUC(0-t) / Cmax / Tmax / Vd/F / half-life / MRT last: human, serum, oral; for MRT last: read-out: MRT0→t
# From the text: Additional File 6: Table S4. Mean pharmacokinetic parameters of patients after multiple administrations in each dosage group
smiles,measurement,setting,value
"COc1ncc(-c2nc(N3CCOCC3)nc3c(CN4CCC(C(C)(C)O)CC4)cc(F)cc23)cc1NS(C)(=O)=O [YY-20394, N-[5-[6-fluoro-8-[[4-(1-hydroxy-1-methylethyl)-1-piperidinyl]methyl]-2-(4-morpholinyl)-4-quinazolinyl]-2-methoxy-3-pyridinyl]-methanesulfonamide]",AUC(0-inf),"[1]; 20 mg, mean",1390 ng·h/mL
same,AUC(0-t),"[1]; 20 mg, mean",1140 ng·h/mL
same,Cmax,"[1]; 20 mg, mean",39.3 ng/mL
same,Tmax,"[1]; 20 mg, mean",4 h
same,Vd/F,"[1]; 20 mg, mean",576 L
same,half-life,"[1]; 20 mg, mean",27.8 h
same,MRT last,"[1]; 20 mg, mean",25 h
same,MRT inf,"[1]; 20 mg, mean",40.7 h
same,AUC(0-inf),"[1]; 40 mg, mean ± SD",2410 ng·h/mL
same,AUC(0-t),"[1]; 40 mg, mean ± SD",2270 ng·h/mL
same,Cmax,"[1]; 40 mg, mean ± SD",148 ± 24.5 ng/mL
same,Tmax,"[1]; 40 mg, mean ± SD",1.8 ± 0.3 h
same,Vd/F,"[1]; 40 mg, mean ± SD",445 ± 100 L
same,half-life,"[1]; 40 mg, mean ± SD",17.8 ± 1.4 h
same,MRT last,"[1]; 40 mg, mean ± SD",18 ± 0.9 h
same,MRT inf,"[1]; 40 mg, mean ± SD",22.4 ± 1.3 h
same,AUC(0-inf),"[1]; 80 mg, mean ± SD",6880 ng·h/mL
same,AUC(0-t),"[1]; 80 mg, mean ± SD",6510 ng·h/mL
same,Cmax,"[1]; 80 mg, mean ± SD",347 ± 90.2 ng/mL
same,Tmax,"[1]; 80 mg, mean ± SD",2.7 ± 1.5 h
same,Vd/F,"[1]; 80 mg, mean ± SD",302 ± 70.4 L
same,half-life,"[1]; 80 mg, mean ± SD",17.2 ± 1.8 h
same,MRT last,"[1]; 80 mg, mean ± SD",18.6 ± 1.9 h
same,MRT inf,"[1]; 80 mg, mean ± SD",22.7 ± 3.1 h
same,AUC(0-inf),"[1]; 140 mg, mean ± SD",15300 ng·h/mL
same,AUC(0-t),"[1]; 140 mg, mean ± SD",14200 ng·h/mL
same,Cmax,"[1]; 140 mg, mean ± SD",854 ± 289 ng/mL
same,Tmax,"[1]; 140 mg, mean ± SD",2 ± 1.7 h
same,Vd/F,"[1]; 140 mg, mean ± SD",236 ± 37.6 L
same,half-life,"[1]; 140 mg, mean ± SD",18 ± 3.6 h
same,MRT last,"[1]; 140 mg, mean ± SD",19.1 ± 3.6 h
same,MRT inf,"[1]; 140 mg, mean ± SD",24.8 ± 6.5 h
same,AUC(0-inf),"[1]; 200 mg, mean ± SD",15000 ng·h/mL
same,AUC(0-t),"[1]; 200 mg, mean ± SD",13100 ng·h/mL
same,Cmax,"[1]; 200 mg, mean ± SD",641 ± 378 ng/mL
same,Tmax,"[1]; 200 mg, mean ± SD",9.4 ± 10.1 h
same,Vd/F,"[1]; 200 mg, mean ± SD",318 ± 92.2 L
same,half-life,"[1]; 200 mg, mean ± SD",16 ± 1.9 h
same,MRT last,"[1]; 200 mg, mean ± SD",21.5 ± 6.4 h
same,MRT inf,"[1]; 200 mg, mean ± SD",21.8 ± 4 h
same,"in vivo exposure (Cmax, AUC0-t, AUC0-∞) versus dose","[1]; single administrations, 20 to 140 mg",increased proportionally in a dose-dependent manner
same,CL/F,"[1]; 20 mg, mean",14.4 L/h
same,CL/F,"[1]; 40 mg, mean ± SD",17.6 ± 4.8 L/h
same,CL/F,"[1]; 80 mg, mean ± SD",12.2 ± 2.6 L/h
same,CL/F,"[1]; 140 mg, mean ± SD",9.2 ± 0.5 L/h
same,CL/F,"[1]; 200 mg, mean ± SD",13.6 ± 2.4 L/h
same,Ratio of IC50 α/δ,PI3Kα,252
same,IC50,PI3Kδ,4.6 nM
same,CL/F,"[2]; 20 mg, mean",16.3 L/h
same,Cmin,"[2]; 20 mg, mean",28.7 ng/mL
same,Css,"[2]; 20 mg, mean",51.0 ng/mL
same,CL/F,"[2]; 40 mg, mean ± SD",13.4 ± 3.7 L/h
same,Cmin,"[2]; 40 mg, mean ± SD",73.0 ± 32.5 ng/mL
same,Css,"[2]; 40 mg, mean ± SD",132.7 ± 43.0 ng/mL
same,CL/F,"[2]; 80 mg, mean ± SD",11.1 ± 3.1 L/h
same,Cmin,"[2]; 80 mg, mean ± SD",180.5 ± 74.5 ng/mL
same,Css,"[2]; 80 mg, mean ± SD",325.7 ± 97.8 ng/mL
same,CL/F,"[2]; 140 mg, mean ± SD",9.1 ± 0.6 L/h
same,Cmin,"[2]; 140 mg, mean ± SD",359.6 ± 31.5 ng/mL
same,Css,"[2]; 140 mg, mean ± SD",642.3 ± 40.2 ng/mL
same,CL/F,"[2]; 200 mg, mean ± SD",9.4 ± 2.2 L/h
same,Cmin,"[2]; 200 mg, mean ± SD",472.4 ± 71.6 ng/mL
same,Css,"[2]; 200 mg, mean ± SD",918.6 ± 201.7 ng/mL
same,"exposure (Cmax, AUC0-t, AUC0-∞) versus dose",[2]; 20 to 200 mg,increased with dosage
same,AUC(0-inf),"[2]; 20 mg, mean",4010 ng·h/mL
same,AUC(0-t),"[2]; 20 mg, mean",1220 ng·h/mL
same,Cmax,"[2]; 20 mg, mean",94.6 ng/mL
same,Tmax,"[2]; 20 mg, mean",4 h
same,Vd/F,"[2]; 20 mg, mean",930 L
same,half-life,"[2]; 20 mg, mean",39.5 h
same,MRT last,"[2]; 20 mg, mean",65.7 h
same,AUC(0-inf),"[2]; 40 mg, mean ± SD",5500 ng·h/mL
same,AUC(0-t),"[2]; 40 mg, mean ± SD",3190 ng·h/mL
same,Cmax,"[2]; 40 mg, mean ± SD",208 ± 58.3 ng/mL
same,Tmax,"[2]; 40 mg, mean ± SD",2.7 ± 1.2 h
same,Vd/F,"[2]; 40 mg, mean ± SD",392 ± 228 L
same,half-life,"[2]; 40 mg, mean ± SD",19.7 ± 7.2 h
same,MRT last,"[2]; 40 mg, mean ± SD",28.1 ± 10.5 h
same,AUC(0-inf),"[2]; 80 mg, mean ± SD",16600 ng·h/mL
same,AUC(0-t),"[2]; 80 mg, mean ± SD",7820 ng·h/mL
same,Cmax,"[2]; 80 mg, mean ± SD",529 ± 170 ng/mL
same,Tmax,"[2]; 80 mg, mean ± SD",2.4 ± 1.7 h
same,Vd/F,"[2]; 80 mg, mean ± SD",388 ± 392 L
same,half-life,"[2]; 80 mg, mean ± SD",25.3 ± 25.5 h
same,MRT last,"[2]; 80 mg, mean ± SD",36.4 ± 37.6 h
same,AUC(0-inf),"[2]; 140 mg, mean ± SD",24300 ng·h/mL
same,AUC(0-t),"[2]; 140 mg, mean ± SD",15400 ng·h/mL
same,Cmax,"[2]; 140 mg, mean ± SD",1190 ng/mL
same,Tmax,"[2]; 140 mg, mean ± SD",3.7 ± 2.5 h
same,Vd/F,"[2]; 140 mg, mean ± SD",215 ± 10 L
same,half-life,"[2]; 140 mg, mean ± SD",16.4 ± 0.3 h
same,MRT last,"[2]; 140 mg, mean ± SD",23.4 ± 1.5 h
same,AUC(0-inf),"[2]; 200 mg, mean ± SD",36300 ng·h/mL
same,AUC(0-t),"[2]; 200 mg, mean ± SD",22000 ng·h/mL
same,Cmax,"[2]; 200 mg, mean ± SD",1610 ng/mL
same,Tmax,"[2]; 200 mg, mean ± SD",2 ± 1.5 h
same,Vd/F,"[2]; 200 mg, mean ± SD",239 ± 110 L
same,half-life,"[2]; 200 mg, mean ± SD",17.5 ± 6.3 h
same,MRT last,"[2]; 200 mg, mean ± SD",25.3 ± 8.8 h
